Source: ChEMBL document CHEMBL5604063, “ASAP - DENV-2 NS2B-NS3 protease fluorescence dose response” (2024)
Several values for one entry are separate records, joined by “and”; a condition that tells them apart may be missing. Equal values may be shown once.

How the values were obtained:
Genome polyprotein [1] = biological target: T1, Genome polyprotein (dengue virus type 2, UniProt P29990); format: functional, Thailand/16681/1984
Genome polyprotein [2] = biological target: T1, Genome polyprotein; format: functional, Thailand/16681/1984; remark: listed apart in the source

T1 sequence (P29990 1346-1475 limits assumed): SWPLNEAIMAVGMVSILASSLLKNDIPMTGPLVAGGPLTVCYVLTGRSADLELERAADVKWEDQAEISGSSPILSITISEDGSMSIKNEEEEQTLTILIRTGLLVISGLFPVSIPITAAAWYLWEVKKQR
T1 sequence (P29990 1476-2093 limits assumed): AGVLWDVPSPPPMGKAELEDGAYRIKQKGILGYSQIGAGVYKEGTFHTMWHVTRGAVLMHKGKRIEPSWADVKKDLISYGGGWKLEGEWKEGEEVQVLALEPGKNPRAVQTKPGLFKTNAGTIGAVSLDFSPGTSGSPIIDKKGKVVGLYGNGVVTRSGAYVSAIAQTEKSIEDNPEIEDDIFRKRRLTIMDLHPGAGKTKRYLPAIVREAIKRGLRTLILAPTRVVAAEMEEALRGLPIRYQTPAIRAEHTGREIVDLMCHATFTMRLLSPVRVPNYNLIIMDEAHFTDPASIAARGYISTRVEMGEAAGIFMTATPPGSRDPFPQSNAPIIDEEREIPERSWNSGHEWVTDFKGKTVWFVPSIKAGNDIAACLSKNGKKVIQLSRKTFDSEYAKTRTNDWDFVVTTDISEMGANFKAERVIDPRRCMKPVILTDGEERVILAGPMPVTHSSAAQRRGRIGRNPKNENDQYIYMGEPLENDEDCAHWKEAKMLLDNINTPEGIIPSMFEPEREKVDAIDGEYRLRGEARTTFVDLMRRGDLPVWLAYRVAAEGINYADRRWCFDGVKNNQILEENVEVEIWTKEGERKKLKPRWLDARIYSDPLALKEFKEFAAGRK

Row | Structure (SMILES) | IC50 (Genome polyprotein [1]) | IC50 (Genome polyprotein [2])
1 | N#C[C@H](Nc1cccc(-c2nn[nH]n2)c1)c1cc(Cl)cc2[nH]ncc12 | > 99.5 µM | 88.3 µM
2 | Clc1cc([C@@H]2C[C@H]2c2cccc(-c3nn[nH]n3)c2)c2cn[nH]c2c1 | 66.2 µM | 20.4 µM and 23.8 µM
3 | O=C(Nc1cc(Cl)cc([C@H]2[C@H](CO)[C@@H]2c2cccc(-c3nn[nH]n3)c2)c1)OCc1ccccc1 | 25.2 µM | 11.3 µM and 13.5 µM
4 | N#C[C@H](Nc1ccc2c(c1)CNC2)c1cc(Cl)cc2[nH]ncc12 | > 99.5 µM | > 100 µM
5 | O=C(Nc1cc(Cl)cc([C@H]2C[C@@H]2c2cccc(-c3nnn[nH]3)c2)c1)OCc1ccccc1 | 16.2 µM | 19.1 µM
6 | N#C[C@H](Nc1ccc(CCC(=O)O)cn1)c1cc(Cl)cc(C2CC2)c1 | > 99.5 µM | > 100 µM
7 | N#C[C@H](Nc1cccn(CC(=O)O)c1=O)c1cc(Cl)cc(C2CC2)c1 | > 99.5 µM | > 100 µM
8 | O=C(Nc1cc(Cl)cc(C(=O)N2CCC(C(=O)O)CC2)c1)OCc1ccccc1 | > 99.5 µM | > 100 µM
9 | O=C(Nc1cc(Cl)cc([C@H](Nc2cccc(-c3nn[nH]n3)c2)C(=O)NC2CCOCC2)c1)OCc1ccccc1 | 40.6 µM | 13.2 µM and 19.9 µM
10 | O=C(O)c1cccc(CCc2cc(Cl)cc3[nH]ncc23)c1 | > 99.5 µM | > 100 µM
11 | NCc1cc(NC(=O)c2cc(Cl)cc(NC(=O)OCc3ccccc3)c2)cc([C@@H]2C[C@H]2C(=O)O)c1 | > 99.5 µM | > 100 µM
12 | N#Cc1cc(CN)cc([C@H]2C[C@@H]2c2cc(Cl)cc(NC(=O)OCc3ccccc3)c2)c1 | > 99.5 µM | > 100 µM
13 | O=C(Nc1cc(Cl)cc(C(=O)N2CCC[C@H]2C(=O)O)c1)OCc1ccccc1 | > 99.5 µM | > 100 µM
14 | C[C@@]1(c2cccc(CN)c2)C[C@H]1c1cc(Cl)cc(NC(=O)OCc2ccccc2)c1 | 17.5 µM | > 100 µM
15 | O=C(Nc1cc(Cl)cc([C@H]2Nc3ccc(-c4nn[nH]n4)cc3[C@H]3OCCC[C@@H]23)c1)OCc1ccccc1 | > 99.5 µM | > 100 µM
16 | Cc1c(C(=O)Nc2cccc(-c3nnn[nH]3)c2)cnn1-c1ccc(Cl)cc1 | > 99.5 µM | > 100 µM
17 | NCc1cccc([C@H](C#CCO)Nc2cc(Cl)cc(NC(=O)OCc3ccccc3)c2)c1 | 64.9 µM | > 100 µM
18 | CNC(=O)c1cc(CN)cc([C@@H]2C[C@H]2c2cc(Cl)cc(NC(=O)OCc3ccccc3)c2)c1 | 29.6 µM | > 100 µM
19 | O=C(O)C[C@H]1CCCN1C(=O)c1cc(Cl)cc(NC(=O)OCc2ccccc2)c1 | > 99.5 µM | > 100 µM
20 | C[C@@]1(c2cc(Cl)cc(NC(=O)OCc3ccccc3)c2)C[C@H]1c1cccc(CN)c1 | 88.1 µM | > 100 µM
21 | CNC(=O)[C@H](Nc1cncc(C(=O)O)c1)c1cc(Cl)cc(C2CC2)c1 | > 99.5 µM | > 100 µM
22 | C[C@H](C(=O)O)N(C)C(=O)c1cc(Cl)cc(NC(=O)OCc2ccccc2)c1 | > 99.5 µM | > 100 µM
23 | CN(C)CCNC(=O)[C@H](Nc1cccc(-c2nn[nH]n2)c1)c1cc(Cl)cc(NC(=O)OCc2ccccc2)c1 | 97.3 µM | 47.2 µM and 67.4 µM and > 100 µM
24 | CN(C)C(=O)Nc1cccc([C@@H]2C[C@H]2c2cc(Cl)cc(NC(=O)OCc3ccccc3)c2)c1 | > 99.5 µM | > 100 µM
25 | CNC(=O)[C@H](Nc1cc(CN)cc(C(=O)O)c1)c1cc(Cl)cc(NC(=O)OCc2ccccc2)c1 | > 99.5 µM | > 100 µM
26 | CC(C)[C@H](CC(=O)O)NC(=O)c1cc(Cl)cc(NC(=O)OCc2ccccc2)c1 | > 99.5 µM | > 100 µM
27 | N#C[C@H](Nc1ccc(CC(=O)O)cn1)c1cc(Cl)cc(C2CC2)c1 | > 99.5 µM | > 100 µM
28 | CNC(=O)[C@H](Nc1cc(CN)cc(-c2nn[nH]n2)c1)c1cc(Cl)cc(C2CC2)c1 | > 99.5 µM | > 100 µM
29 | O=C(Nc1cc(Cl)cc(C(=O)Nc2ccnc(C(=O)O)c2)c1)OCc1ccccc1 | 66.9 µM | > 100 µM
30 | O=C(Nc1cc(Cl)cc(C(=O)N2CC[C@H](C(=O)O)C2)c1)OCc1ccccc1 | > 99.5 µM | > 100 µM
